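Method: 48-hour compound exposure of cells in 96-well plates, five concentrations, linear interpolation of endpoints. Definition used: TGI = concentration required for complete inhibition of growth.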
Assays:
Test in all cases: NCI tumour cell line growth inhibition, 48 h
OVCAR-3 ovarian = test system: OVCAR-3 ovarian
SK-MEL-5 melanoma = test system: SK-MEL-5 melanoma
UO-31 renal = test system: UO-31 renal
OVCAR-5 ovarian = test system: OVCAR-5 ovarian
NCI-H460 lung = test system: NCI-H460 lung
LOX IMVI melanoma = test system: LOX IMVI melanoma
NCI-H23 lung = test system: NCI-H23 lung
MDA-MB-231 breast = test system: MDA-MB-231 breast
BT-549 breast = test system: BT-549 breast
TK-10 renal = test system: TK-10 renal

SMILES	TGI (OVCAR-3 ovarian) [µM]	TGI (SK-MEL-5 melanoma) [µM]	TGI (UO-31 renal) [µM]	TGI (OVCAR-5 ovarian) [µM]	TGI (NCI-H460 lung) [µM]	TGI (LOX IMVI melanoma) [µM]	TGI (NCI-H23 lung) [µM]	TGI (MDA-MB-231 breast) [µM]	TGI (BT-549 breast) [µM]	TGI (TK-10 renal) [µM]
CNC(=O)C(C)C1CCC2(C)C=CC(=O)C(C)=C2C1O (stereo not given)	> 100	> 60.1	> 68.3	> 100	> 100	> 100	> 100			
N#CC1=C(N)N(c2ccccc2)C(c2ccco2)C1(C#N)C#N (stereo not given)	56.7	32.3	33.6	48.4		31.1	38.9	35.1	37.4	31.5
O=[N+]([O-])/C(C(Cl)=C(Cl)Cl)=C(\SCc1ccccc1)N1CCCCC1	34.6	31.4	56.5	43.9	78	35	42.1	37.3		> 100
[N-]=[N+]=Nc1cc(=O)oc2ccccc12		> 100	> 100	> 100	> 100	> 100	> 100			> 100
COc1nc(N)c(C(=O)CCl)c(=O)n1C		28.5	67	37.2	39.5	20.8				29
CC(N)Cc1ccc(C(=O)Cl)cc1 (stereo not given)	> 100	> 100			> 100	> 100	> 100			> 100
COC(=O)[C@H]1CO[C@@H](C(C)(C)C)N1C(=O)N1C=CC(=O)C[C@@H]1C	> 100	> 100	> 100	> 100		> 100	> 100	> 100	> 100	> 100
CCNC(=S)N/N=C/c1cc([N+](=O)[O-])ccc1O		> 100	> 100	> 100	> 100	> 100	> 100	> 100	> 100	79.8
O=C1C(=Cc2ccc(O)cc2)N=C(c2ccccc2)N1n1c(-c2ccccc2)nc2ccccc2c1=O		> 100	> 100			> 100	> 100	> 100	> 100	> 100
N#CN=C(N(Cc1ccccc1)Cc1ccccc1)N(Cc1ccccc1)Cc1ccccc1	31.7		> 100	> 100	> 100	> 100				
N.N.N.N.O=[N+]([O-])[O-].[Co+3].[N-]=[N+]=[N-].[N-]=[N+]=[N-]	> 100	> 100	> 100	> 100	> 100	> 100	> 100			> 100
CCC[C@@H](O)C[C@@H]1CCC[C@H](C[C@@H](O)CC)N1C	> 100	> 100	> 100	> 100		> 100	> 100	> 100	> 100	> 100
Cc1cn(C2CC(N(O)C(N)=O)C(CO)O2)c(=O)[nH]c1=O (stereo not given)	> 100	> 100	> 100	> 100			> 100	> 100		> 100
Cc1cc(=O)[nH]c(NN2C(Cl)C(=O)C2c2ccccc2O)n1 (stereo not given)	23.3	17.2	> 78.1	> 100	> 100	> 100	> 100	> 100		> 100
CCN(CC)CCC(=O)Nc1ccc2c(c1)C(=O)c1ccc(NC(=O)CCN(CC)CC)cc1C2=O		19.8	> 100	25.1	2.74	6.19	23.2			18.9
COc1ccc(/C=C2\CCC(C)C3=C2NC(=S)NC3c2ccc(OC)c(OC)c2)cc1OC (stereo not given)	> 31.6	28.8	> 31.6	> 31.6	> 100	> 31.6		> 31.6	26.2	> 31.6
O=C1OCC(O)=C1C(c1ccc(Cl)cc1)c1cc2c(cc1O)OCO2 (stereo not given)	> 100	> 100	> 100	> 100	> 100	> 100		> 100	> 100	> 100
O=C1CCC(=O)N1n1c(Cc2ccccc2)n[nH]c1=O	> 100	> 100	> 100	> 100	> 100	> 100		> 100	> 100	> 100
CC1C=C(CCCCCCCCCCCC[C@@H](O)[C@@H]2CC[C@@H]([C@@H]3CC[C@@H](C(O)CCCCCCCCCCCCC4=C[C@H](C)OC4=O)O3)O2)C(=O)O1 (stereo not given in full)	> 100	27.4	> 100	> 100	> 100	> 100	> 100			> 100
CC(C)CCCCCCCCCCCCC(=O)NCC(=O)NC1C(C)OC(Nc2ncnc3c2ncn3C)C(O)C1O (stereo not given)	> 100	> 100	16.9	97	> 100	> 100	> 100			
CC(=O)Nc1ccc(-c2nnc(SCC(=O)Nc3ccc([N+](=O)[O-])cc3)o2)cc1	28.1	25.9	34.6	36	29.1	18.1	25			27.9
C[n+]1c2ccccc2c(/C=N\NS(=O)(=O)c2ccc(O)c(C(=O)O)c2)c2ccccc21	> 100	> 100	> 100	> 100	> 100	> 100	> 100			> 100
Cc1cc(O)c2c(=O)c3ccccc3[nH]c2c1	> 100	31.1		> 100	> 100	64.3	> 100	> 100	85.3	> 100
COc1cc2c(cc1OC)C(c1ccccc1CCCCl)=NCC2	> 100	47.2	> 100	> 100	> 100		> 100	> 100	> 100	> 100

From PubChem BioAssay (NCI)
